According to ChEMBL document CHEMBL1126639, “Centrally acting serotonergic and dopaminergic agents. 2. Synthesis and structure-activity relationships of 2,3,3a,4,9,9a-hexahydro-1H-benz[f]indole derivatives” (J Med Chem, 1993):

Key:
Mus musculus [1] = assay: Time of effect in the face-to-face behavioral assay in the mouse when a dose of 5.4 micro mol/kg is administered subcutaneously; type: functional
Mus musculus [2] = assay: Time of effect in the face-to-face behavioral assay in the mouse when a dose of 54 micro mol/kg is administered subcutaneously; type: functional
Mus musculus [3] = species: Mus musculus; assay: Time of effect in the face-to-face behavioral assay in the mouse […]; type: functional
Mus musculus [4] = assay: Ability to stimulate dopaminergic systems by effect on locomotor activity in reserpinized mice when a dose of 3.7 micro mol/kg is administered intraperitoneally; type: functional
Mus musculus [5] = assay: Antagonism of apomorphine for 10-20 minutes in reserpinized mice when a dose of 37 micro mol/kg is administered intraperitoneally; type: functional
Mus musculus [6] = assay: Antagonism of apomorphine in reserpinized mice when a dose of 0.4 micro mol/kg is administered intraperitoneally; type: functional
Mus musculus [7] = assay: Antagonism of apomorphine in reserpinized mice when a dose of 37 micro mol/kg is administered intraperitoneally; type: functional
Mus musculus [8] = assay: Ability to stimulate dopaminergic systems by effect on locomotor activity in reserpinized mice when a dose of 37 micro mol/kg is administered intraperitoneally; type: functional
D(2) dopamine receptor [9] = target: T1, D(2) dopamine receptor (Homo sapiens, UniProt P14416); assay: Binding affinity against [3H]U-86,170-labeled dopamine receptor D2 in cloned CHO cells; type: cell-based
D(2) dopamine receptor [10] = target: T1, D(2) dopamine receptor; assay: Intrinsic activity from GTP shift using CHO cell membranes expressing dopamine receptor D2; type: functional
Mus musculus [11] = assay: Antagonism of apomorphine for 0-10 minutes in reserpinized mice when a dose of 37 micro mol/kg is administered intraperitoneally; type: functional
Mus musculus [12] = assay: Antagonism of apomorphine in reserpinized mice when a dose of 3.7 micro mol/kg is administered intraperitoneally; type: functional
Mus musculus [13] = assay: Antagonism of apomorphine for 10-20 minutes in reserpinized mice when a dose of 0.4 micro mol/kg is administered intraperitoneally; type: functional
Mus musculus [14] = assay: Antagonism of apomorphine for 0-10 minutes in reserpinized mice when a dose of 3.7 micro mol/kg is administered intraperitoneally; type: functional
Mus musculus [15] = assay: Antagonism of apomorphine for 0-10 minutes in reserpinized mice when a dose of 0.4 micro mol/kg is administered intraperitoneally; type: functional
D(2) dopamine receptor [16] = target: T2, D(2) dopamine receptor (Rattus norvegicus, UniProt P61169); assay: Binding affinity for [3H]raclopride-labeled dopamine receptor D2 in rat striatum; type: tissue-based
Mus musculus [17] = assay: Ability to stimulate dopaminergic systems by effect on locomotor activity in reserpinized mice when a dose of 0.4 micro mol/kg is administered intraperitoneally; type: functional
Mus musculus [18] = assay: Antagonism of apomorphine for 10-20 minutes in reserpinized mice when a dose of 3.7 micro mol/kg is administered intraperitoneally; type: functional
Rattus norvegicus = assay: Inhibition of firing rates of dopaminergic neurons in the substantia nigra pars compacta by intravenous injection in rats.; type: functional
D(2) dopamine receptor [19] = target: T2, D(2) dopamine receptor; assay: Inhibitory concentration against [3H]raclopride-labeled dopamine receptor D2 in rat striatum was estimated from single point experiment. compound was run at 1 uM
D(2) dopamine receptor [20] = target: T2, D(2) dopamine receptor; assay: Inhibitory concentration against [3H]raclopride-labeled dopamine receptor D2 in rat striatum; type: tissue-based
Mus musculus [21] = assay: Maximum decrease in temperature when compound is administered subcutaneously; type: functional
Mus musculus [22] = assay: Effective dose on hypothermia in mouse when administered through peroral route; type: functional; conditions: Mus musculus, po; read-out: ED50
Mus musculus [23] = assay: Effective dose on hypothermia in mouse when administered subcutaneously; type: functional; conditions: Mus musculus, sc; read-out: ED50

T2 sequence (P61169 whole entry): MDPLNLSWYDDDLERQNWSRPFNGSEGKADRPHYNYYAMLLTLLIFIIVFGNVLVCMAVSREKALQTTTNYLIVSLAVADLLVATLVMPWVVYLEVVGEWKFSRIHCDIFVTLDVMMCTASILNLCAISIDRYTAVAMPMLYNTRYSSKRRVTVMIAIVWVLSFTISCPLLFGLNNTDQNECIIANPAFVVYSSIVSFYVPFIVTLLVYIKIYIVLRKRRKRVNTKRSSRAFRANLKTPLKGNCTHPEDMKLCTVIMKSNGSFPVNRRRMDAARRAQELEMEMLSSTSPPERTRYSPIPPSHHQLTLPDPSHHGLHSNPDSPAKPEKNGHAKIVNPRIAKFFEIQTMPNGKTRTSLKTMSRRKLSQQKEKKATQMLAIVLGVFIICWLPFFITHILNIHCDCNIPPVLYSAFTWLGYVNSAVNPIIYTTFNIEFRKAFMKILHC
T1 sequence (P14416 whole entry): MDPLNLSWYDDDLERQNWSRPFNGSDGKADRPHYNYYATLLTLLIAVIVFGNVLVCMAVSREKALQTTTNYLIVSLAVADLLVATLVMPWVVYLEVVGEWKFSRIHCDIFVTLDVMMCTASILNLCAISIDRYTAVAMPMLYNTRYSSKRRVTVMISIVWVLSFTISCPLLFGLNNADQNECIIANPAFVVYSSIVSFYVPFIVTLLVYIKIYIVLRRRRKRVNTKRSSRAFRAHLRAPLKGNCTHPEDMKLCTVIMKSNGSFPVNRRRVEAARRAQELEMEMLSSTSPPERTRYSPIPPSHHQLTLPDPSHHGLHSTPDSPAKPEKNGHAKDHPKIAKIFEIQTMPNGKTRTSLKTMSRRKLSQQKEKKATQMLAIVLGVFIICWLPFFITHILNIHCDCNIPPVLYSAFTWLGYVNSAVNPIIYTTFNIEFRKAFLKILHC

CC(N)Cc1ccccc1.O=S(=O)(O)O (stereo unspecified) [AMPHETAMINE SULFATE]
Time (Mus musculus [1]): 2.4 s
Time (Mus musculus [2]): 2.9 s
Time (Mus musculus [3]): 2.6 s

C=CCN1CC[C@H]2Cc3c(O)cccc3C[C@@H]21
Locomotor activity (Mus musculus [4]): 1
Locomotor activity (Mus musculus [5]): 103
Locomotor activity (Mus musculus [6]): 81
Locomotor activity (Mus musculus [7]): 77
Locomotor activity (Mus musculus [8]): 113
Ki (D(2) dopamine receptor [9]): 235 nM
Intrinsic activity (D(2) dopamine receptor [10]): 21%
Locomotor activity (Mus musculus [11]): 84
Locomotor activity (Mus musculus [12]): 86
Locomotor activity (Mus musculus [13]): 119
Locomotor activity (Mus musculus [14]): 109
Locomotor activity (Mus musculus [15]): 121
Ki (D(2) dopamine receptor [16]): 47 nM
Locomotor activity (Mus musculus [17]): 45
Locomotor activity (Mus musculus [18]): 119
ED50 (Rattus norvegicus): 0.94 µmol/kg

CCCN1CC[C@@H]2Cc3c(O)cccc3C[C@@H]21 (racemic)
Intrinsic activity (D(2) dopamine receptor [10]): 61%

C=CCN1CC[C@@H]2Cc3cccc(OC)c3C[C@@H]21 (racemic)
IC50 (D(2) dopamine receptor [19]): > 1000 nM

CCCN1CC[C@@H]2Cc3c(cccc3OC)C[C@@H]21 (racemic)
IC50 (D(2) dopamine receptor [20]): > 1000 nM

COc1cccc2c1C[C@H]1CCN[C@H]1C2 (racemic)
IC50 (D(2) dopamine receptor [20]): > 1000 nM

COc1cccc2c1C[C@H]1CCN[C@@H]1C2 (racemic)
Max temperature decrease (Mus musculus [21]): 6.2
IC50 (D(2) dopamine receptor [20]): > 1000 nM
ED50 (Mus musculus [22]): > 125 µmol/kg
ED50 (Mus musculus [23]): 1.7 µmol/kg

C=CCN1CC[C@@H]2Cc3c(cccc3OC)C[C@@H]21 (racemic)
Ki (D(2) dopamine receptor [16]): 429 nM

CCCN1CC[C@@H]2Cc3c(O)cccc3C[C@H]21 (racemic)
Intrinsic activity (D(2) dopamine receptor [10]): 79%

C=CCN1CC[C@@H]2Cc3c(O)cccc3C[C@H]21 (racemic)
Intrinsic activity (D(2) dopamine receptor [10]): 91%

CCCN1CC[C@H]2Cc3c(cccc3OC)C[C@@H]21
IC50 (D(2) dopamine receptor [20]): > 1000 nM
